Results published in patent US8906868B2, “Aminoglycoside derivatives” (Rempex Pharmaceuticals, Inc., priority 2010, dated 2014).
Values after ≈ are worked out from the molar mass of the structure shown. Like-named read-outs stand apart in the source and are kept apart here.

Assays:
[1] = tested on: ECM6006 aph(3′)-III; experiment: microbe, parasite or virus in culture; format: cell-based, Escherichia coli; details: Escherichia coli, read-out: Compound MIC on Bacterial Strains: ECM6006 aph(3′)-III
How it was run: (§1)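 A colony from the previous day's agar plate is suspended in CaMHB to give 5×10^5 CFU/ml final. This inoculum is added to 2-fold compound dilutions, incubated 18 hours at 35° C, and turbidity at 600 nm, checked by eye, defines the MIC.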

[2] = tested on: ECM6009 aac(3)-II; experiment: microbe, parasite or virus in culture; format: cell-based, Escherichia coli; details: Escherichia coli, read-out: Compound MIC on Bacterial Strains: ECM6009 aac(3)-II
How it was run: as §1

[3] = tested on: ECM6010 ant(2″)-I; experiment: microbe, parasite or virus in culture; format: cell-based, Escherichia coli; details: Escherichia coli, read-out: Compound MIC on Bacterial Strains: ECM6010 ant(2″)-I
How it was run: as §1

[4] = tested on: ECM6011 aph(3′)-I; experiment: microbe, parasite or virus in culture; format: cell-based, Escherichia coli; details: Escherichia coli, read-out: Compound MIC on Bacterial Strains: ECM6011 aph(3′)-I
How it was run: as §1

[5] = tested on: ECM6003 rmtB; experiment: microbe, parasite or virus in culture; format: cell-based, Escherichia coli; details: Escherichia coli; Table 3; read-out: Compound MIC on Bacterial Strains: ECM6003 rmtB
How it was run: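 Broth microdilution per CLSI M7-A7 in cation-adjusted Mueller Hinton broth with 2-fold serial dilutions and 5×10^5 CFU/ml inoculum. Incubated 18 hours at 35 °C; MIC read by turbidity at 600 nm and confirmed visually.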

[6] = tested on: EC1002 aph(3′)-IV; experiment: organism not typed; format: cell-based; details: read-out: Compound MIC on Bacterial Strains: EC1002 aph(3′)-IV
How it was run: as §1

[7] = tested on: EC1001 acc(6′)-Ib; experiment: microbe, parasite or virus in culture; format: cell-based, Escherichia coli; details: Escherichia coli; Table 4; read-out: Compound MIC on Bacterial Strains: Escherichia coli EC1001 acc(6′)-Ib
How it was run: (§2)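 Compounds were dissolved as CLSI specifies and diluted 2-fold in cation-adjusted Mueller Hinton broth. Colony suspensions were added to a final 5×10^5 CFU/ml, plates incubated 18 hours at 35° C, and MIC scored from absorbance at 600 nm with visual confirmation.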

[8] = tested on: ECM6007 aac(6′) + aph(2″); experiment: microbe, parasite or virus in culture; format: cell-based, Escherichia coli; details: Escherichia coli, 18 h; Table 4; read-out: Compound MIC on Bacterial Strains: Escherichia coli ECM6007 aac(6′) + aph(2″)
How it was run: as §2

[9] = tested on: ACM1005 ATCC 19004; experiment: MIC, broth microdilution; format: cell-based, Acinetobacter baumannii; details: Acinetobacter baumannii, ATCC19004; Table 4; read-out: Compound MIC on Bacterial Strains: Acinetobacter baumannii ACM1005 ATCC 19004
How it was run: as §2

[10] = tested on: ACM1006 acc(6′)-Ib; experiment: microbe, parasite or virus in culture; format: cell-based, Acinetobacter baumannii; details: Acinetobacter baumannii; Table 4; read-out: Compound MIC on Bacterial Strains: Acinetobacter baumannii ACM1006 acc(6′)-Ib
How it was run: as §2

[11] = tested on: PAM3072 aac(6′)-II; experiment: microbe, parasite or virus in culture; format: cell-based, Pseudomonas aeruginosa; details: Pseudomonas aeruginosa, Table 5; read-out: Compound MIC on Bacterial Strains: Pseudomonas aeruginosa PAM3072 aac(6′)-II
How it was run: as §2

[12] = tested on: PAM3073 aac(6′)-I; experiment: microbe, parasite or virus in culture; format: cell-based, Pseudomonas aeruginosa; details: Pseudomonas aeruginosa, Table 5; read-out: Compound MIC on Bacterial Strains: Pseudomonas aeruginosa PAM3073 aac(6′)-I
How it was run: as §2

[13] = tested on: Sa 287 aac(6′) + aph(2″); experiment: microbe, parasite or virus in culture; format: cell-based, Staphylococcus aureus; details: Staphylococcus aureus, 18 h; Table 5; read-out: Compound MIC on Bacterial Strains: Staphylococcus aureus Sa 287 aac(6′) + aph(2″)
Experimental: To compare microbiological activity of the test compounds, minimum inhibitory concentrations (MIC.s) were determined. Antibiotic MICs were obtained using the broth microdilution method according to Clinical and Laboratory Standards Institute (CLSI) approved guidelines (Methods for dilution antimicrobial susceptibility tests for bacteria that grow aerobically; approved standard—7th ed. CLSI document M7-A7. Clinical and Laboratory Standards Institute, Wayne, Pa., incorporated herein by reference in its entirety). Antibiotics were dissolved as specified by CLSI (Performance standards for antimicrobial susceptibility testing; Seventeenth informational supplement. CLSI document M100-S17. Clinical and Laboratory Standards Institute, Wayne, Pa., incorporated herein by reference in its entirety), and were serially diluted 2-fold in cation adjusted Mueller Hinton Broth (CaMHB) at 2× concentration. Bacterial inoculums were prepared in CaMHB by suspension of a colony from an agar plate that was prepared the previous day to obtain a final concentration of 5×10^5CFU/ml. The plates were incubated for 18 hours at 35° C. […] MIC.s were determined by reading the turbidity of plate wells using a SpectraMax Plus384 plate reader (Molecular Devices, Sunnyvale, Calif., USA) at 600 nm and were confirmed by visual inspection.

[14] = tested on: Escherichia coli (ATCC 25922); experiment: MIC, broth microdilution; details: Escherichia coli
[15] = tested on: Staphylococcus aureus (ATCC 29213); experiment: MIC, broth microdilution; details: Staphylococcus aureus
[16] = tested on: Klebsiella pneumonia (ATCC 43816); experiment: MIC, broth microdilution; details: Klebsiella pneumoniae, ATCC43816, read-out: Compound MIC on Bacterial Strains: K. pneumonia ATCC 43816
[17] = tested on: Pseudomonas aeruginosa (ATCC 27853); experiment: MIC, broth microdilution; details: Pseudomonas aeruginosa
[18] = tested on: Acinetobacter baumannii (ATCC 19606); experiment: MIC, broth microdilution; details: Acinetobacter baumannii, ATCC19606, read-out: Compound MIC on Bacterial Strains: A. baumannii ATCC 19606
[19] = tested on: rats; experiment: Nephrotoxicity of test compounds in rats; details: once daily subcutaneous
[20] = ATCC25922, read-out: Compound MIC on Bacterial Strains: E. coli ATCC 25922
[21] = ATCC25922, read-out: Compound MIC on Bacterial Strains: ECM6000 ATCC 25922
[22] = ATCC25922, read-out: Compound MIC on Bacterial Strains: Escherichia coli ECM6000 ATCC 25922
[23] = ATCC29213, read-out: Compound MIC on Bacterial Strains: S. aureus ATCC 29213, QC strain, Table 2
[24] = ATCC29213, read-out: Compound MIC on Bacterial Strains: Staphylococcus aureus SAM1000 ATCC 29213, Table 5
[25] = ATCC27853, read-out: Compound MIC on Bacterial Strains: P. aeruginosa ATCC 27853
[26] = ATCC27853, read-out: Compound MIC on Bacterial Strains: Pseudomonas aeruginosa PAM3034 ATCC 27853

Structure (SMILES) | MIC [1] [µg/mL] | MIC [2] [µg/mL] | MIC [3] [µg/mL] | MIC [4] [µg/mL] | MIC [5] [µg/mL] | MIC [6] [µg/mL] | MIC [7] [µg/mL] | MIC [8] [µg/mL] | MIC [9] [µg/mL] | MIC [10] [µg/mL] | MIC [11] [µg/mL] | MIC [12] [µg/mL] | MIC [13] [µg/mL] | MIC [14, 20] [µg/mL] | MIC [14, 21] [µg/mL] | MIC [14, 22] [µg/mL] | MIC [15, 23] [µg/mL] | MIC [15, 24] [µg/mL] | MIC [16] [µg/mL] | MIC [17, 25] [µg/mL] | also measured
CN[C@@H]1[C@@H](O)[C@@H](O[C@@H]2[C@@H](O)[C@H](O[C@H]3O[C@H](CNCCO)CC[C@H]3N)[C@@H](N)C[C@H]2NC(=O)[C@@H](O)CCN)OC[C@]1(C)O [Compound 1, (2S)-4-amino-N-((1R,2S,3S,4R,5S)-5-amino-4-((2R,3R,6S)-3-amino-6-((2-hydroxyethylamino)methyl)tetrahydro-2H-pyran-2-yloxy)-2-((2R,3R,5R)-3,5-dihydroxy-5-methyl-4-(methylamino)tetrahydro-2H-pyran-2-yloxy)-3-hydroxycyclohexyl)-2-hydroxybutanamide] | 1 to 8 (≈ 1.68 to 13.5 µM) | < 1 | < 1 | < 1 | > 8 | < 1 | < 1 | < 1 | < 1 | < 1 | > 8 | 1 to 8 (≈ 1.68 to 13.5 µM) | 1 to 8 | < 1 | < 1 | < 1 | < 1 | < 1 | < 1 | 1 to 8 (≈ 1.68 to 13.5 µM) | MIC [17, 26]: 1 to 8 µg/mL (≈ 1.68 to 13.5 µM); MIC [18]: > 8 µg/mL; Histopathology Results After 7 days of Dosing ([19]; 10 mg/kg/day): No Change; Histopathology Results After 14 days of Dosing ([19]; 10 mg/kg/day): No Change; Histopathology Results After 7 days of Dosing ([19]; 30 mg/kg/day): Mild Nephrosis; Histopathology Results After 14 days of Dosing ([19]; 30 mg/kg/day): Moderate to Severe Nephrosis; Histopathology Results After 7 days of Dosing ([19]; 100 mg/kg/day): Severe Nephrosis; Histopathology Results After 14 days of Dosing ([19]; 100 mg/kg/day): 4/4 Died
CNC[C@@H]1CCC(N)[C@@H](OC2C(O)C(O[C@H]3OCC(C)(O)[C@H](NC)C3O)[C@H](NC(=O)[C@@H](O)C(O)CN)C[C@@H]2N)O1 (stereo in doubt) [Compound 23, (2S,3R)-4-amino-N-((1R,2S,3S,4R,5S)-5-amino-4-((2R,3R,6S)-3-amino-6-((methylamino)methyl)tetrahydro-2H-pyran-2-yloxy)-2-((2R,3R,4R,5R)-3,5-dihydroxy-5-methyl-4-(methylamino)tetrahydro-2H-pyran-2-yloxy)-3-hydroxycyclohexyl)-2,3-dihydroxybutanamide] | 1 to 8 (≈ 1.72 to 13.8 µM) | 1 to 8 (≈ 1.72 to 13.8 µM) | 1 to 8 (≈ 1.72 to 13.8 µM) | 1 to 8 (≈ 1.72 to 13.8 µM) | 1 to 8 (≈ 1.72 to 13.8 µM) | 1 to 8 (≈ 1.72 to 13.8 µM) | 1 to 8 (≈ 1.72 to 13.8 µM) | < 1 | 1 to 8 (≈ 1.72 to 13.8 µM) | 1 to 8 (≈ 1.72 to 13.8 µM) | > 8 | 1 to 8 (≈ 1.72 to 13.8 µM) | 1 to 8 | < 1 | 1 to 8 (≈ 1.72 to 13.8 µM) | 1 to 8 (≈ 1.72 to 13.8 µM) | < 1 | 1 to 8 (≈ 1.72 to 13.8 µM) | < 1 | 1 to 8 (≈ 1.72 to 13.8 µM) | MIC [17, 26]: 1 to 8 µg/mL (≈ 1.72 to 13.8 µM); MIC [18]: > 8 µg/mL
CN[C@@H]1[C@@H](O)[C@@H](O[C@@H]2[C@@H](O)[C@H](O[C@H]3O[C@H](CNCCO)CC[C@H]3N)[C@@H](N)C[C@H]2NC(=O)[C@@H](O)CN)OC[C@]1(C)O [Compound 2, (S)-3-amino-N-((1R,2S,3S,4R,5S)-5-amino-4-((2R,3R,6S)-3-amino-6-((2-hydroxyethylamino)methyl)tetrahydro-2H-pyran-2-yloxy)-2-((2R,3R,4R,5R)-3,5-dihydroxy-5-methyl-4-(methylamino)tetrahydro-2H-pyran-2-yloxy)-3-hydroxycyclohexyl)-2-hydroxypropanamide] | < 1 | < 1 | < 1 | < 1 | > 8 | 1 to 8 (≈ 1.72 to 13.8 µM) | < 1 | < 1 | 1 to 8 (≈ 1.72 to 13.8 µM) | 1 to 8 (≈ 1.72 to 13.8 µM) | > 8 | 1 to 8 (≈ 1.72 to 13.8 µM) | < 1 | < 1 | < 1 | < 1 | < 1 | < 1 | < 1 | 1 to 8 (≈ 1.72 to 13.8 µM) | MIC [17, 26]: 1 to 8 µg/mL (≈ 1.72 to 13.8 µM); MIC [18]: > 8 µg/mL; Histopathology Results After 7 days of Dosing ([19]; 10 mg/kg/day): Minimal Tubular Eosinophilia;; Histopathology Results After 14 days of Dosing ([19]; 10 mg/kg/day): No change; Histopathology Results After 7 days of Dosing ([19]; 30 mg/kg/day): Minimal Tubular Eosinophilia;; Histopathology Results After 14 days of Dosing ([19]; 30 mg/kg/day): Minimal to Mild Dilatation; Histopathology Results After 7 days of Dosing ([19]; 100 mg/kg/day): Mild Tubular Eosinophila; Histopathology Results After 14 days of Dosing ([19]; 100 mg/kg/day): No Deaths; Moderate to Severe
